This assay concerns 743489-274-T-PDC complex spheroid growth. As to the kind of experiment: Anticancer human tumor 743489-274-T-PDC patient-derived renal cell carcinoma cell line growth inhibition [AhR]. The settings on record: for viability, T/C: stronger effect = lower value. The source says:
Multicellular complex tumor spheroid response to aryl hydrocarbon receptor antagonists in combination with a variety of drugs and investigational agents in selected tumor cell lines
The current study was undertaken to assess response to aryl hydrocarbon receptor antagonists in combination with standard-of-care drugs and investigational agents in solid tumor complex spheroid models. Complex spheroids include a stromal component modeled by human endothelial cells (HUVEC) and fibroblasts modeled by human mesenchymal stem cells (MSCs). The concentration ranges selected for each drug and investigational agent were based upon clinically achievable concentrations if the clinical Cmax of the agent was known.
Compounds. The drugs and investigational agents: BAY 2416964 (NSC825713), GNF351 (NSC835774), CH-223191 (NSC835775), CPI-455 (NSC825282), aza-TdCyd (NSC777586), decitabine (NSC127716), belinostat (NSC758774), entinostat (NSC756642), pevonedistat (NSC761192), tazemetostat (NSC777109), talazoparib (NSC765396), olaparib (NSC753686), selinexor (NSC780203), nedisertib (M3814, NSC802822), bortezomib (NSC756655), venetoclax (NSC766270), doxorubicin (NSC123127), elimusertib (BAY189344, NSC800525), ceralasertib (AZD6738, NSC777638), TAK-243 (NSC785004), alisertib (NSC759677), etoposide (NSC141540), topotecan (NSC609699), eribulin (NSC707389), gemcitabine (NSC613327), carboplatin (NSC241240), cisplatin (NSC119875), and SN-38 (NSC673596) were obtained from the National Cancer Institute (NCI) Developmental Therapeutics Program Chemical Repository (32). The FDA-approved anticancer drug set is available from the Developmental Therapeutics Program at https://dtp.cancer.gov/organization/dscb/obtaining/available plates.htm. […] The stock solutions were prepared in dimethyl sulfoxide (DMSO, Sigma-Aldrich, St. Louis, MO, cat. D2650), except for the platinum compounds which were prepared in saline (Quality Biological, Gaithersburg, MD, cat. 114-055-101), at 800-fold the tested concentration and stored at -70 degrees C prior to their use. All drugs and investigational agents were tested over a range starting from a high concentration at or near the clinical Cmax and decreasing in half-log increments. If the clinical Cmax for an agent had not been determined, the highest concentration tested was 10 microM (Table 1).
Cell Culture. All cells were maintained in an incubator at 37 degrees C and 5% CO2 with 95% humidity. The PDC lines were cultured according to standard operating procedures established by the NCI PDMR (https://pdmr.cancer.gov). Briefly, all PDCs were thawed and cultured in Matrigel-coated flasks prepared with a working solution of 1X Ham's F-12 nutrient mix, without supplementation (Invitrogen, Waltham, MA, cat. 11765054), 100 U/mL penicillin-streptomycin (Invitrogen, cat. 15140122), and 2.5% Matrigel (Corning Inc., Corning, NY, cat. 354248) for the first three passages. All PDCs were cultured in complete DMEM/F-12 media containing advanced DMEM/F-12 (Invitrogen, cat. 12634028), 4.9% defined fetal bovine serum, heat inactivated (HyClone Laboratories Inc., Logan, UT, cat. SH30070.03HI), 389 ng/mL hydrocortisone (Sigma-Aldrich, cat. H4001), 9.7 ng/mL human EGF recombinant protein (Invitrogen, cat. PHG0313), 23.4 microg/mL adenine (Sigma-Aldrich, cat. A2786), 97.3 U/mL penicillin-streptomycin (Invitrogen, cat. 15140122), 1.9 mM L-glutamine (Invitrogen, cat. 25030081), and 9.7 microM Y-27632 dihydrochloride (Tocris Bioscience, Bristol, United Kingdom, cat. 1254). The PDCs were cultured in complete DMEM/F12 media without 10 microM Y-27632 dihydrochloride for at least two passages prior to the screen. The established cell lines NCI-H1341 and […] were cultured in DMEM/F-12, HEPES (Invitrogen, cat. 11330032), 5% defined fetal bovine serum (HyClone Laboratories Inc., cat. SH30070.03), ITS premix universal culture supplement [insulin (5 microg/mL), transferrin (5 microg/mL), and selenious acid (5 ng/mL)] […]

The mark [1] stands for this setting: curve of first compound, second compound 0.1 µM.
The mark [2] stands for this setting: curve of first compound, second compound 0.316 µM.
Where [3] appears, read: curve of first compound, second compound 1 µM.
Where [4] appears, read: curve of first compound, second compound 3.16 µM.
Setting [5] is: curve of first compound, second compound 10 µM.
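Note: spheroids exposed to agents for 7 days before readout.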
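Throughout, for viability, T/C: 100% = DMSO vehicle control wells.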

In general, IC50 refers to the point on the concentration scale where inhibition reaches its midpoint. As a reminder, the viability, T/C is the result in the treated group divided by that in the control group, in per cent. On to `NS(=O)(=O)OCC1CC(n2ccc3c(NC4CCc5ccccc54)ncnc32)CC1O` (configuration not stated) + Cc1ccccc1N=Nc1ccc(NC(=O)c2ccnn2C)c(C)c1, for which the IC50 runs as follows: under setting [1], more than 10000 nM; under setting [2], more than 10000 nM; under setting [3], more than 10000 nM; under setting [4], more than 10000 nM; under setting [5], more than 10000 nM. Moreover, the viability, T/C runs as follows: (second compound 0.1 µM, first compound 0.0316 µM) 103%; (second compound 0.1 µM, first compound 0.1 µM) 110%; (second compound 0.1 µM, first compound 0.316 µM) 116%; (second compound 0.1 µM, first compound 1 µM) 146%; (second compound 0.1 µM, first compound 3.16 µM) 162%; (second compound 0.1 µM, first compound 10 µM) 140%. Also, the viability, T/C is 109% (second compound 0.316 µM, first compound 0.0316 µM); 95.8% (second compound 0.316 µM, first compound 0.1 µM); 112% (second compound 0.316 µM, first compound 0.316 µM); 144% (second compound 0.316 µM, first compound 1 µM); 137% (second compound 0.316 µM, first compound 3.16 µM); 155% (second compound 0.316 µM, first compound 10 µM). The viability, T/C by setting is: (second compound 1 µM, first compound 0.0316 µM) 98.1%; (second compound 1 µM, first compound 0.1 µM) 104%; (second compound 1 µM, first compound 0.316 µM) 102%; (second compound 1 µM, first compound 1 µM) 144%; (second compound 1 µM, first compound 3.16 µM) 146%; (second compound 1 µM, first compound 10 µM) 141%. The viability, T/C was 105% (second compound 3.16 µM, first compound 0.0316 µM); 90.8% (second compound 3.16 µM, first compound 0.1 µM); 112% (second compound 3.16 µM, first compound 0.316 µM); 128% (second compound 3.16 µM, first compound 1 µM); 152% (second compound 3.16 µM, first compound 3.16 µM); 140% (second compound 3.16 µM, first compound 10 µM). For the same compound, the viability, T/C (second compound 10 µM, first compound 0.0316 µM) was 96.7%; the viability, T/C (second compound 10 µM, first compound 0.1 µM) was 103%; the viability, T/C (second compound 10 µM, first compound 0.316 µM) was 116%; the viability, T/C (second compound 10 µM, first compound 1 µM) was 130%; the viability, T/C (second compound 10 µM, first compound 3.16 µM) was 121%; the viability, T/C (second compound 10 µM, first compound 10 µM) is 115%.

With `CC(CO)NC(=O)c1cc(-c2ccc(Cl)cc2)nn(-c2cnn(C)c2)c1=O` (configuration not stated), the viability, T/C (compound 0.316 µM) is 90% [middle of 21 runs]. In addition, for the setting “compound alone, run of 08/08/2022”, the IC50 was more than 10000 nM.

Turning to `CC(C)CC(NC(=O)C(Cc1ccccc1)NC(=O)c1cnccn1)B(O)O` (configuration not stated) + CC(CO)NC(=O)c1cc(-c2ccc(Cl)cc2)nn(-c2cnn(C)c2)c1=O, the IC50 runs as follows: under setting [1], 21.3 nM; under setting [2], 21.5 nM; under setting [3], 19.8 nM; under setting [4], 18.2 nM; under setting [5], 16.6 nM. The viability, T/C by setting is: (second compound 0.1 µM, first compound 0.000949 µM) 106%; (second compound 0.1 µM, first compound 0.003 µM) 102%; (second compound 0.1 µM, first compound 0.00949 µM) 104%; (second compound 0.1 µM, first compound 0.03 µM) 27.3%; (second compound 0.1 µM, first compound 0.0949 µM) 10.7%; (second compound 0.1 µM, first compound 0.3 µM) 4.68%. Moreover, the viability, T/C by setting is: (second compound 0.316 µM, first compound 0.000949 µM) 90.2%; (second compound 0.316 µM, first compound 0.003 µM) 102%; (second compound 0.316 µM, first compound 0.00949 µM) 102%; (second compound 0.316 µM, first compound 0.03 µM) 30.3%; (second compound 0.316 µM, first compound 0.0949 µM) 11.1%; (second compound 0.316 µM, first compound 0.3 µM) 4.81%. For the same compound, the viability, T/C is 90.5% (second compound 1 µM, first compound 0.000949 µM); 104% (second compound 1 µM, first compound 0.003 µM); 94.9% (second compound 1 µM, first compound 0.00949 µM); 24.6% (second compound 1 µM, first compound 0.03 µM); 9.8% (second compound 1 µM, first compound 0.0949 µM); 4.5% (second compound 1 µM, first compound 0.3 µM). The viability, T/C by setting is: (second compound 3.16 µM, first compound 0.000949 µM) 94.3%; (second compound 3.16 µM, first compound 0.003 µM) 96.7%; (second compound 3.16 µM, first compound 0.00949 µM) 87.1%; (second compound 3.16 µM, first compound 0.03 µM) 21.2%; (second compound 3.16 µM, first compound 0.0949 µM) 10.7%; (second compound 3.16 µM, first compound 0.3 µM) 3.25%. The viability, T/C by setting is: (second compound 10 µM, first compound 0.000949 µM) 98%; (second compound 10 µM, first compound 0.003 µM) 111%; (second compound 10 µM, first compound 0.00949 µM) 85.4%; (second compound 10 µM, first compound 0.03 µM) 12.6%; (second compound 10 µM, first compound 0.0949 µM) 10.3%; (second compound 10 µM, first compound 0.3 µM) 4.28%.
